Biological target: T1, Cx43 HC (Mus musculus, UniProt P23242)
T1 construct: left ventricular isolated cardiomyocytes were collected; endogenous in cells; host or cells: left ventricular cardiomyocytes acutely isolated from adult C57BL6 mice
Assay: Whole cell voltage-clamp recording of Cx43 HC unitary currents activated by combined RyR activation (caffeine)/[Ca2+]i elevation in isolated ventricular cardiomyocytes
Type: cell-based
Conditions: RyR inhibitors; [Ca2+]i clamped to 250 nM (10 mM BAPTA); Vm = -70 mV
Procedure: Adult C57BL6 mice, between 10 - 16 weeks, were heparinized (5000 IU/kg IP) and sacrificed by cervical dislocation. Following thoracotomy, the heart was quickly excised and then transferred to a Langendorff apparatus and perfused at a constant flow (^∼3 mL/min) and temperature (37°C). The heart was digested using collagenase and protease and left ventricular isolated cardiomyocytes were collected. Ca^2+-tolerant cells were used for the experiment for the next 6 hours. In case of Cx43 knockdown (KD) (Cx43^CreER(T)/fl) and respective control mice (Cre43^fl/fl) the isolation procedures were preceded by daily injection of tamoxifen to achieve global knockdown condition^25. Cre43^fl/fl mice are available from The Jackson Laboratory and the Cx43^CreER(T)/fl transgenic mouse strain can be made by any method known in the art.
Isolated ventricular cardiomyocytes and HeLa-Cx43 cells were studied under whole cell voltage-clamp to record membrane currents. Patch clamp experiments were conducted at room temperature (22 ± 1 °C). Fluo-4 (25 µM) was used to detect the [Ca^2+]i transients during the current recording.
Caffeine triggers two combined events, RyR activation and subsequent [Ca^2+]i elevation, and we next aimed to separate both processes. […] For simplicity, we further refer to the calculated concentrations in the following text. […]

T1 sequence (P23242 whole entry): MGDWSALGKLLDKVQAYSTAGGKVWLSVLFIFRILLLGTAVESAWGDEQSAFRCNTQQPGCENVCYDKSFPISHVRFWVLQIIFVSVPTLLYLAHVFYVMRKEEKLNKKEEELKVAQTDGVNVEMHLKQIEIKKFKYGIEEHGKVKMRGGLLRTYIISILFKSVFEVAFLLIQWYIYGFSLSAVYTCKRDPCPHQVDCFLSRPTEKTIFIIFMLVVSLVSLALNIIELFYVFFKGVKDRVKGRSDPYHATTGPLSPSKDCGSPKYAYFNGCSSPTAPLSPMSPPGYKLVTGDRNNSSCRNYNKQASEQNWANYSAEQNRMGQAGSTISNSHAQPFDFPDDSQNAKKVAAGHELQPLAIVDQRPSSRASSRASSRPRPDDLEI

Molecule	caffeine-induced Cx43 HC activation
O=C1CN(/N=C/c2ccc(-c3ccc([N+](=O)[O-])cc3)o2)C(O)=N1 [dantrolene]	did not inhibit
ryanodine	did not inhibit
